This note sets out measurements from US11976072B2, “Diacylglycerol kinase modulating compounds” (priority 2021, dated 2024).

The test system of assay [1] is Jurkat NFκB-luciferase cells. Description: Jurkat NFκB-Luciferase Assay. The class given is cell-based. The settings on record: Homo sapiens. In outline:
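Luminescence from One-Glo Ex, read 7 min post-addition, reports NFκB activation in Jurkat luciferase reporter cells. Cells, diluted to 1 million cells/ml in 10% FBS RPMI, were dispensed onto plates holding compound and washed, pre-bound antibody.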

In the next assay the target is human DGKα (Homo sapiens, UniProt P23743). Description: DGKα Biochemical Activity Assay (ADP-Glo).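 Further: luminescent detection of ADP produced as DGKα phosphorylates DAG to phosphatidic acid, IC50 from four-parameter nonlinear curve fit.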 The settings on record: recombinant DGKα 1 nM, 100 μM ATP, 18:1 DAG/POPS/octylglucoside micelles, 1 hour at 25° C.; geometric mean; read-out: HTBS DGKa 1X ATP KM IC50. On the technique in general: In ADP-Glo the light output rises with the ADP produced.
Sequence of human DGKα (P23743 whole entry): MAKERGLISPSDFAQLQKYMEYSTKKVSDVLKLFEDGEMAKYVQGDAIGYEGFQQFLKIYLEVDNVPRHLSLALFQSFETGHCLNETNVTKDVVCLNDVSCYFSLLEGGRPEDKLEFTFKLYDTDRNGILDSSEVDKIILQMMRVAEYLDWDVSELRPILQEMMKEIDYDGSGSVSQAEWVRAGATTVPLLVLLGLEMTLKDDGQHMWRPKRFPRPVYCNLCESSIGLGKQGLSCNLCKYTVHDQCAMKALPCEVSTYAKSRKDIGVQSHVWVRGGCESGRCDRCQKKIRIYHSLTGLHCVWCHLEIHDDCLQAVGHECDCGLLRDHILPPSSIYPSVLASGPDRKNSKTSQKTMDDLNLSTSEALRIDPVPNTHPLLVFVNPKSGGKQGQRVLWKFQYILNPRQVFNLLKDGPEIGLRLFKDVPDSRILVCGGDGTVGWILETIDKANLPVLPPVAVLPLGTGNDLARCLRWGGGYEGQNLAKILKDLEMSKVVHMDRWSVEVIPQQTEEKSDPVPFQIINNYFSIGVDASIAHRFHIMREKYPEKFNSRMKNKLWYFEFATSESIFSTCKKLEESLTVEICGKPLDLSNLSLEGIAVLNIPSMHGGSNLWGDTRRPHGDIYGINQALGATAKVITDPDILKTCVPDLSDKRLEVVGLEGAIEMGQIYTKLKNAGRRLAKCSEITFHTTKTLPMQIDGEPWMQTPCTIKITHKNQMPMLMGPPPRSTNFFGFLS
Where [2] appears, read: Jurkat NFκB-luciferase cells activated with anti-CD3 antibody (OKT3), 2.5 hrs at 37° C., geometric mean, read-out: DGK NFKb Luciferase EC50.
Setting [3] is: Jurkat, […], read-out: DGK NFKb Luciferase EC50 (nM).

Structures are written as SMILES. Read-outs that look alike come from different tables or passages of the source.

Description for human DGKα: Alternatively, the enzymatic activity of human DGKα was monitored in a biochemical assay in the presence or absence of compounds and using micelles containing 18:1 Diacylglycerol (DAG), 16:0-18:1 PS (POPS) and Octylglucoside as substrate. DGKα activity led to conversion of DAG and ATP to Phosphatidic Acid (PA) and ADP. Levels of ADP were monitored by bioluminescence using the ADP-Glo Kinase Assay (Promega) and were indicative of DGKα activity.
Recombinant DGKα (Carna Biosciences) in assay buffer (5 μL in 50 mM MOPS [3-(N-morpholino) propanesulfonic acid], pH 7.2; 0.0025% Triton X-100; 1 mM dithiothreitol; 5 mM MgCl2, 200 μM ATP) was added to the compound-containing plate and was incubated for 15 minutes at 25° C. […] The reaction mixture was incubated at 25° C. for 1 hour. ADP-Glo Reagent (10 μL, 10 mM Mg added) provided by the kit was added to each well and incubated at 25° C. for 40 minutes. Then, 20 μL of Kinase Detection Reagent was added and incubated at 25° C. for 40 minutes. Luciferase activity of each well was measured via luminescence on an Envision plate reader (PerkinElmer).
Least squares curve fittings were performed using a four-parameter variable slope nonlinear regression model. […] IC50 values from multiple experiments were averaged by geometric mean and the standard deviation was calculated.

As for `Cc1nnc2nc(N3CCCc4c(C#CC5(C)COC5)cccc43)c3c(F)cccc3n12` [Example 27, 6-fluoro-1-methyl-5-(5-((3-methyloxetan-3-yl)ethynyl)-3,4-dihydroquinolin-1(2H)-yl)-[1,2,4]triazolo[4,3-a]quinazoline], in assay [1] (setting [2]), the EC50 – broadly, the concentration that produces a half-maximal response – stood at 3.52 nM. Moreover, the IC50 (in general, the concentration that gives 50% inhibition) on human DGKα is 15.1 nM.
For `Cc1nnc2nc(N3CCCc4c(N5CCN(S(C)(=O)=O)CC5)cccc43)c3c(F)cccc3n12` [Example 160, 6-fluoro-1-methyl-5-[5-(4-methylsulfonylpiperazin-1-yl)-3,4-dihydro-2H-quinolin-1-yl]-[1,2,4]triazolo[4,3-a]quinazoline], the concentration for a half-maximal effect (EC50) in assay [1] (setting [2]) amounted to 28.6 nM. For the same compound, the IC50 at human DGKα worked out at 74.9 nM.
Regarding `Cc1nnc2nc(N3CCOCc4c3ccnc4C#CC(C)(C)C(F)(F)F)c3cc(F)ccc3n12` [Example 134, 1-(7-fluoro-1-methyl-[1,2,4]triazolo[4,3-a]quinazolin-5-yl)-6-(4,4,4-trifluoro-3,3-dimethylbut-1-yn-1-yl)-1,2,3,5-tetrahydropyrido[4,3-e][1,4]oxazepane], the EC50 in assay [1] (setting [2]) is 8.21 nM. Further, the half-maximal inhibitory concentration (IC50) on human DGKα turned out to be 9.88 nM.
Turning to `CC(C)(O)C#Cc1cc(F)cc2c1CCCN2c1nc2nncn2c2c(F)cc(F)cc12` [Example 114], the EC50 in assay [1] (setting [2]) is 12.5 nM. Besides, the half-maximal inhibitory concentration (IC50) at human DGKα was determined as 6.76 nM.
For `OC1(C#Cc2cccc3c2CCCN3c2nc3nncn3c3cccc(F)c23)CCCCC1` [Example 202, 1-((1-(6-Fluoro-[1,2,4]triazolo[4,3-a]quinazolin-5-yl)-1,2,3,4-tetrahydroquinolin-5-yl)ethynyl)cyclohexan-1-ol], in assay [1] (setting [3]), the concentration giving a half-maximal response (EC50) amounted to 2.04 nM. For the same compound, at human DGKα, the half-maximal inhibitory concentration (IC50) was determined as 3.88 nM.
Turning to `Cc1nnc2nc(N3CCN(C)Cc4c(C#CC(C)(C)C(F)(F)F)cccc43)c3c(F)cccc3n12` [Example 162, 6-fluoro-1-methyl-5-[4-methyl-6-(4,4,4-trifluoro-3,3-dimethyl-but-1-ynyl)-3,5-dihydro-2H-1,4-benzodiazepin-1-yl]-[1,2,4]triazolo[4,3-a]quinazoline], in assay [1] (setting [2]), the EC50 was 3.33 nM. The IC50 at human DGKα worked out at 15 nM.
Take `Cc1nnc2nc(N3CCOCc4c(C#CC(C)(C)NC(=O)OC(C)(C)C)cccc43)c3c(F)cccc3n12` [Example 148, tert-butyl (4-(1-(6-fluoro-1-methyl-[1,2,4]triazolo[4,3-a]quinazolin-5-yl)-1,2,3,5-tetrahydrobenzo[e][1,4]oxazepin-6-yl)-2-methylbut-3-yn-2-yl)carbamate]: in assay [1] (setting [2]), the 50% effective concentration (EC50) is 6.03 nM. For the same compound, the half-maximal inhibitory concentration (IC50) on human DGKα worked out at 4.36 nM.
For the compound `Cc1nc(C(C)(C)C#Cc2cccc3c2CCCN3c2nc3nnc(C)n3c3cccc(F)c23)oc1C` [Example 77, 2-(4-(1-(6-fluoro-1-methyl-[1,2,4]triazolo[4,3-a]quinazolin-5-yl)-1,2,3,4-tetrahydroquinolin-5-yl)-2-methylbut-3-yn-2-yl)-4,5-dimethyloxazole], the EC50 in assay [1] (setting [2]) amounted to 1.94 nM. Also, the IC50 at human DGKα was 15.5 nM.
`Cc1nnc2nc(N3CCCc4c(C#CC5(C(F)F)CC5)cncc43)c3c(F)c(F)ccc3n12` [Example 11, 5-(5-((1-(difluoromethyl)cyclopropyl)ethynyl)-3,4-dihydro-1,7-naphthyridin-1(2H)-yl)-6,7-difluoro-1-methyl-[1,2,4]triazolo[4,3-a]quinazoline]: in assay [1] (setting [2]), the EC50 turned out to be 5.77 nM. For the same compound, the IC50 at human DGKα was determined as 13.9 nM.
For `CC(F)(F)C1(C#Cc2cccc3c2CCCCN3c2nc3nncn3c3ccc(F)c(F)c23)CC1` [Example 208, 5-(6-((1-(1,1-Difluoroethyl)cyclopropyl)ethynyl)-2,3,4,5-tetrahydro-1H-benzo[b]azepin-1-yl)-6,7-difluoro-[1,2,4]triazolo[4,3-a]quinazoline] the same measures were 0.815 nM and 18.7 nM.
On to `Cc1nnc2nc(N3CCCc4c(C#Cc5ccnc(C#N)c5)cccc43)c3cc(F)ccc3n12` [Example 229, 4-[2-[1-(7-fluoro-1-methyl-[1,2,4]triazolo[4,3-a]quinazolin-5-yl)-3,4-dihydro-2H-quinolin-5-yl]ethynyl]pyridine-2-carbonitrile], for which the EC50 in assay [1] (setting [2]) is 1.04 nM. Further, the concentration for half-maximal inhibition (IC50) at human DGKα came out at 16.7 nM.
Take `Cc1nnc2nc(N3CCCc4c(C#CC5CCC5)cccc43)c3c(F)cccc3n12` [Example 246, 5-[5-(2-cyclobutylethynyl)-3,4-dihydro-2H-quinolin-1-yl]-6-fluoro-1-methyl-[1,2,4]triazolo[4,3-a]quinazoline]: the EC50 in assay [1] (setting [2]) is 0.272 nM. Also, the IC50 on human DGKα came out at 39.3 nM.
In the same order, the values of `Cc1nnc2nc(N3CCCOc4c(C#CC5(C)CC5)cncc43)c3cc(F)ccc3n12` [Example 173, 5-(7-fluoro-1-methyl-[1,2,4]triazolo[4,3-a]quinazolin-5-yl)-9-[2-(1-methylcyclopropyl)ethynyl]-3,4-dihydro-2H-pyrido[4,3-b][1,4]oxazepine] are 2.03 nM and 17.2 nM.
For the compound `Cc1nnc2nc(N3CCOCc4c(C#CC(C)(C)NC(=O)C5(C(F)(F)F)CC5)cccc43)c3c(F)c(F)ccc3n12` [Example 182, N-[3-[1-(6,7-Difluoro-1-methyl-[1,2,4]triazolo[4,3-a]quinazolin-5-yl)-3,5-dihydro-2H-4,1-benzoxazepin-6-yl]-1,1-dimethyl-prop-2-ynyl]-1-(trifluoromethyl)cyclopropanecarboxamide], the EC50 in assay [1] (setting [2]) turned out to be 4.27 nM. For the same compound, the IC50 at human DGKα was 2.41 nM.
As to `Cc1nnc2nc(N3CCCCc4c(C#CC5(C(F)(F)F)CC5)cccc43)c3c(F)cccc3n12` [Example 192], the EC50 in assay [1] (setting [2]) stood at 0.892 nM. The IC50 on human DGKα worked out at 54.9 nM.
`CC(C)(C#Cc1cncc2c1CCCN2c1nc2nncn2c2ccc(F)c(F)c12)C(F)(F)F` [Example 100, 6,7-difluoro-5-(5-(4,4,4-trifluoro-3,3-dimethylbut-1-yn-1-yl)-3,4-dihydro-1,7-naphthyridin-1(2H)-yl)-[1,2,4]triazolo[4,3-a]quinazoline]: the half-maximal effective concentration (EC50) in assay [1] (setting [2]) worked out at 0.122 nM. Besides, at human DGKα, the half-maximal inhibitory concentration (IC50) turned out to be 6.22 nM.
For the compound `CC(C)(O)C#Cc1cccc2c1COCCN2c1nc2nncn2c2c(Cl)ccc(F)c12` [Example 40, 4-[1-(9-chloro-6-fluoro-[1,2,4]triazolo[4,3-a]quinazolin-5-yl)-3,5-dihydro-2H-4,1-benzoxazepin-6-yl]-2-methyl-but-3-yn-2-ol], the EC50 in assay [1] (setting [3]) turned out to be 17.1 nM. The concentration for half-maximal inhibition (IC50) on human DGKα amounted to 12.6 nM.
As to `Fc1ccc(Cl)c2c1c(N1CCOCc3c(C#CC4(C(F)F)CC4)cccc31)nc1nncn12` [Example 39, 1-(9-chloro-6-fluoro-[1,2,4]triazolo[4,3-a]quinazolin-5-yl)-6-[2-[1-(difluoromethyl)cyclopropyl]ethynyl]-3,5-dihydro-2H-4,1-benzoxazepine], the EC50 in assay [1] (setting [2]) turned out to be 2.18 nM. Moreover, on human DGKα, the IC50 was determined as 8.31 nM.
Take `Cc1nnc2nc(N3CCCc4c(C#Cc5ccn[nH]5)cccc43)c3cc(F)ccc3n12` [Example 224, 7-fluoro-1-methyl-5-[5-[2-(1H-pyrazol-5-yl)ethynyl]-3,4-dihydro-2H-quinolin-1-yl]-[1,2,4]triazolo[4,3-a]quinazoline]: the EC50 in assay [1] (setting [2]) came to 8.38 nM. The IC50 on human DGKα stood at 15.1 nM.
For `Cc1nnc2nc(N3CCN(C)Cc4c(C#CC5(C(F)(F)F)CC5)cccc43)c3c(F)c(F)ccc3n12` [Example 169, 6,7-difluoro-1-methyl-5-[4-methyl-6-[2-[1-(trifluoromethyl)cyclopropyl]ethynyl]-3,5-dihydro-2H-1,4-benzodiazepin-1-yl]-[1,2,4]triazolo[4,3-a]quinazoline], the EC50 in assay [1] (setting [2]) came to 4.39 nM. Also, on human DGKα, the IC50 turned out to be 7.3 nM.
In the case of `Cc1nnc2nc(N3CCCc4c(C#Cc5cn[nH]c5)cccc43)c3c(F)cccc3n12` [Example 212, 5-(5-((1H-pyrazol-4-yl)ethynyl)-3,4-dihydroquinolin-1(2H)-yl)-6-fluoro-1-methyl-[1,2,4]triazolo[4,3-a]quinazoline], the EC50 in assay [1] (setting [2]) was 9.7 nM. Moreover, the IC50 at human DGKα stood at 18.6 nM.
As to `Cc1nnc2nc(N3CCOCc4c3ccnc4C#CC3(C(C)(F)F)CC3)c3c(F)cccc3n12` [Example 142, 6-((1-(1,1-difluoroethyl)cyclopropyl)ethynyl)-1-(6-fluoro-1-methyl-[1,2,4]triazolo[4,3-a]quinazolin-5-yl)-1,2,3,5-tetrahydropyrido[4,3-e][1,4]oxazepine], the EC50 in assay [1] (setting [2]) is 5.03 nM. The half-inhibitory concentration (IC50) on human DGKα was 16.4 nM.
As to `Cc1nnc2nc(N(CC(F)F)c3cc(F)cc(C#CC4(O)CCC4)c3)c3c(F)cccc3n12` [Example 21, 1-((3-((2,2-difluoroethyl)(6-fluoro-1-methyl-[1,2,4]triazolo[4,3-a]quinazolin-5-yl)amino)-5-fluorophenyl)ethynyl)cyclobutan-1-ol], the half-maximal effective concentration (EC50) in assay [1] (setting [2]) stood at 9.42 nM. Further, the IC50 at human DGKα was determined as 21 nM.
For `Cc1nnc2nc(N3CCCCc4c(C#CC5(NC(=O)C6(C(F)(F)F)CC6)CC5)cccc43)c3c(F)cccc3n12` [Example 177, N-(1-((1-(6-Fluoro-1-methyl-[1,2,4]triazolo[4,3-a]quinazolin-5-yl)-2,3,4,5-tetrahydro-1H-benzo[b]azepin-6-yl)ethynyl)cyclopropyl)-1-(trifluoromethyl)cyclopropane-1-carboxamide], in assay [1] (setting [2]), the EC50 stood at 23.4 nM. Also, the 50% inhibitory concentration (IC50) at human DGKα came out at 6.74 nM.
On to `Cc1nnc2nc(N3CCOCc4c(N5CCC(C)(C#N)CC5)cccc43)c3c(F)cccc3n12` [Example 154, 1-[1-(6-fluoro-1-methyl-[1,2,4]triazolo[4,3-a]quinazolin-5-yl)-3,5-dihydro-2H-4,1-benzoxazepin-6-yl]-4-methyl-piperidine-4-carbonitrile], for which the half-maximal effective concentration (EC50) in assay [1] (setting [2]) was 6.33 nM. Also, the IC50 on human DGKα amounted to 7.42 nM.
Take `Cc1nnc2nc(N3CCCc4c(N5CCC(C)(F)CC5)cccc43)c3c(F)cccc3n12` [Example 156, 6-fluoro-5-[5-(4-fluoro-4-methyl-1-piperidyl)-3,4-dihydro-2H-quinolin-1-yl]-1-methyl-[1,2,4]triazolo[4,3-a]quinazoline]: the EC50 in assay [1] (setting [2]) amounted to 1.02 nM. The IC50 on human DGKα amounted to 40.2 nM.
